These results are taken from patent US20250042900A1 (priority 2022, published 2025).

Counter-ions that a name gives are not always drawn. Like-named read-outs stand apart in the source and are kept apart here.

For test [1], the target named is Dopamine Receptor D1 (DRD1) (Homo sapiens, UniProt P21728). Description: cAMP secondary messenger assay, agonist format. The settings on record: read-out: EC50 (μM) Agonist/Opener. Type of test: cell-based.
Test [2] concerns Gamma-aminobutyric acid Receptor A (GABAA). Description: Ion channel assay, opener format. It is filed as cell-based. The conditions noted are these: read-out: EC50 (μM) Agonist/Opener.
Another test deals with T1, 5-HT1B receptors (Homo sapiens, UniProt P28222).
T1 construct: host or cells: cAMP Hunter cell line
T1 sequence (P28222 whole entry): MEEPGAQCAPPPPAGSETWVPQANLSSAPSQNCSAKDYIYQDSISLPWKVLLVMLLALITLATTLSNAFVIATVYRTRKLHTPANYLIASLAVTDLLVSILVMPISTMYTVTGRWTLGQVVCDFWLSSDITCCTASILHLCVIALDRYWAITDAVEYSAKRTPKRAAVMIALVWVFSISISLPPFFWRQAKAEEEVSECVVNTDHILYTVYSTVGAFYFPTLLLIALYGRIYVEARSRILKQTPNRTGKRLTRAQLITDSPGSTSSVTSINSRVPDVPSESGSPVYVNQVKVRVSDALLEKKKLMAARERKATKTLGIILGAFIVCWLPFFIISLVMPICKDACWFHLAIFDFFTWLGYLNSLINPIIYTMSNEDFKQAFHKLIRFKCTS
As to the kind of experiment: In vitro activity at 5-HT1B receptors, agonist mode (cAMP secondary messenger assay). It is filed as cell-based.

Test [3] concerns the target T2, 5-Hydroxytryptamine (Serotonin) Receptor 1A (5-HT1A) (Homo sapiens, UniProt P08908).
T2 construct: host or cells: cAMP Hunter cell line
As to the kind of experiment: cAMP secondary messenger assay, antagonist format. It is filed as cell-based. The settings on record: read-out: IC50 (μM) Antag./Blocker/Inhibitor.

Test [4] has as its target N-methyl-D-aspartate (NMDA) Glutamate Receptor 1A/2B (NMDAR (1A/2B)) (Homo sapiens, UniProt Q05586+Q13224). Description: Ion channel assay, blocker format. Type of test: cell-based. The conditions noted are these: read-out: IC50 (μM) Antag./Blocker/Inhibitor.
The target in test [5] is Cannabinoid Receptor 1 (CNR1) (Homo sapiens, UniProt P21554). Description: cAMP secondary messenger assay, antagonist format. Type of test: cell-based. The settings on record: read-out: IC50 (μM) Antag./Blocker/Inhibitor.
Chain of Cannabinoid Receptor 1 (CNR1) (P21554 whole entry): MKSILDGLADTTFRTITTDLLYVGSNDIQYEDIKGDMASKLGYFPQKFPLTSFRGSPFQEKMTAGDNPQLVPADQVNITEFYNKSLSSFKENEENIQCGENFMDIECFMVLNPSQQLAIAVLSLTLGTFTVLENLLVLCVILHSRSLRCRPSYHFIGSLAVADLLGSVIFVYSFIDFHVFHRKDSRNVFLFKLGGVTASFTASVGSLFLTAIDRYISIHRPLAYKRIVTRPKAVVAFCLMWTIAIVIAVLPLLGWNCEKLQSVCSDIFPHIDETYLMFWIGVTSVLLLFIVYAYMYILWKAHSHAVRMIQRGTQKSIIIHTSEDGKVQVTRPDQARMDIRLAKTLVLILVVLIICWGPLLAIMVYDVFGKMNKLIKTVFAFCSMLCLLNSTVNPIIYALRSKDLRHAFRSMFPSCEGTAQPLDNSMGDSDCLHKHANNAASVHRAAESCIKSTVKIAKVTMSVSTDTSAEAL
For test [6], the target named is Muscarinic acetylcholine Receptor M3 (CHRM3) (Homo sapiens, UniProt P20309). As to the kind of experiment: Calcium flux secondary messenger assay, agonist format. Type of test: cell-based. The conditions noted are these: read-out: EC50 (μM) Agonist/Opener. In general terms: Calcium assays in cells follow changes in intracellular calcium, usually with a dye or a luminescent sensor.

Test [7] concerns the target T3, 5-Hydroxytryptamine (Serotonin) Receptor 3A (5-HT3A) (Homo sapiens, UniProt P46098).
T3 construct: expressed in transfected cells
As to the kind of experiment: Ion channel assay, opener format. Type of test: cell-based. The settings on record: read-out: EC50 (μM) Agonist/Opener.

In test [8] the target is Adenosine Receptor A2A (ADORA2A) (Homo sapiens, UniProt P29274). Description: Calcium flux secondary messenger assay, agonist format. Type of test: cell-based. The conditions noted are these: read-out: EC50 (μM) Agonist/Opener.
Chain of Adenosine Receptor A2A (ADORA2A) (P29274 whole entry): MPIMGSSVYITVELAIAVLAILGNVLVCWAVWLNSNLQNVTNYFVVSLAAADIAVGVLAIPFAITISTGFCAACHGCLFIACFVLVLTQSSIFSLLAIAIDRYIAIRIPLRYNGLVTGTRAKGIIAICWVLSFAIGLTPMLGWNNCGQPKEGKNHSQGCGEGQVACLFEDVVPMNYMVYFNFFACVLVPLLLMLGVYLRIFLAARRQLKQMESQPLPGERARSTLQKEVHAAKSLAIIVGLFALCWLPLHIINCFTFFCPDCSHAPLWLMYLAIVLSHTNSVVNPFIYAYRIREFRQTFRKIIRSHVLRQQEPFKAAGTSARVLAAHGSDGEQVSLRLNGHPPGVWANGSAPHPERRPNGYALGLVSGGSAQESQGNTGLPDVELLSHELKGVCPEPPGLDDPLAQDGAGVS
The target of the next test is T4, PDE3A (Homo sapiens, UniProt Q14432).
T4 construct: purchased Signal Chem
As to the kind of experiment: Enzymatic assay PDE3A. It is filed as biochemical. The conditions noted are these: inhibitor, read-out: IC50 (μM) Antag./Blocker/Inhibitor.

Test [9] has as its target Muscarinic acetylcholine Receptor M2 (CHRM2) (Homo sapiens, UniProt P08172). Description: cAMP secondary messenger assay, antagonist format. It is filed as cell-based. The settings on record: read-out: IC50 (μM) Antag./Blocker/Inhibitor.
The target in test [10] is 5-Hydroxytryptamine (Serotonin) Receptor 2A (5-HT2A) (Homo sapiens, UniProt P28223). Description: Calcium flux secondary messenger assay, antagonist format. The settings on record: read-out: IC50 (μM) Antag./Blocker/Inhibitor. It is filed as cell-based.
Chain of 5-Hydroxytryptamine (Serotonin) Receptor 2A (5-HT2A) (P28223 whole entry): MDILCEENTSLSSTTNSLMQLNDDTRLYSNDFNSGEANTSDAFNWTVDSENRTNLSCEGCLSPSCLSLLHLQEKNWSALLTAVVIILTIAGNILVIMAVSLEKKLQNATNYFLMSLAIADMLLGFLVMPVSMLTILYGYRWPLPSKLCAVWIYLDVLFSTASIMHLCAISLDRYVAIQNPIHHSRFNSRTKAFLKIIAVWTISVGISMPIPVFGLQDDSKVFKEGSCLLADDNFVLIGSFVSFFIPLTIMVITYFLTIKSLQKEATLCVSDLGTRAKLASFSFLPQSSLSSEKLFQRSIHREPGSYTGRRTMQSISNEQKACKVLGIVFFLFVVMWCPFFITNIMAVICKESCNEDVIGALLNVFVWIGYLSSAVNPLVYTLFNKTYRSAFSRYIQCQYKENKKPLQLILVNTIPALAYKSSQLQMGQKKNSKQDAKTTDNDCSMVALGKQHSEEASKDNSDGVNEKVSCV
For test [11], the target named is Adrenergic Receptor α1A (ADRA1A) (Homo sapiens, UniProt P35348). The test is described as above. The settings on record: read-out: IC50 (μM) Antag./Blocker/Inhibitor. Type of test: cell-based.
Chain of Adrenergic Receptor α1A (ADRA1A) (P35348 whole entry): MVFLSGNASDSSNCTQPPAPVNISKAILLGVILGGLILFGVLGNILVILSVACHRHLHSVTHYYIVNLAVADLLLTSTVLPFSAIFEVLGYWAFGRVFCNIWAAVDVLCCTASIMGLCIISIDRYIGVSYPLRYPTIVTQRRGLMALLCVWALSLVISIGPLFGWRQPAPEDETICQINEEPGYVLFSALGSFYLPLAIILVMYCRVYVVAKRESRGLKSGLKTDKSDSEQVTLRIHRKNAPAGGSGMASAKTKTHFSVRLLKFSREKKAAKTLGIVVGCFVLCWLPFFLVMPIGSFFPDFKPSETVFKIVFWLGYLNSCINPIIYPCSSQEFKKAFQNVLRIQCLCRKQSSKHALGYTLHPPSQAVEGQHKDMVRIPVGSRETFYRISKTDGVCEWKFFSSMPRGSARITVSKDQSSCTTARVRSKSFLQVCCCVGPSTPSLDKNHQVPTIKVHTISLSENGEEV

Chain of N-methyl-D-aspartate (NMDA) Glutamate Receptor 1A/2B (NMDAR (1A/2B)) (Q13224 27-1484, other chains not shown): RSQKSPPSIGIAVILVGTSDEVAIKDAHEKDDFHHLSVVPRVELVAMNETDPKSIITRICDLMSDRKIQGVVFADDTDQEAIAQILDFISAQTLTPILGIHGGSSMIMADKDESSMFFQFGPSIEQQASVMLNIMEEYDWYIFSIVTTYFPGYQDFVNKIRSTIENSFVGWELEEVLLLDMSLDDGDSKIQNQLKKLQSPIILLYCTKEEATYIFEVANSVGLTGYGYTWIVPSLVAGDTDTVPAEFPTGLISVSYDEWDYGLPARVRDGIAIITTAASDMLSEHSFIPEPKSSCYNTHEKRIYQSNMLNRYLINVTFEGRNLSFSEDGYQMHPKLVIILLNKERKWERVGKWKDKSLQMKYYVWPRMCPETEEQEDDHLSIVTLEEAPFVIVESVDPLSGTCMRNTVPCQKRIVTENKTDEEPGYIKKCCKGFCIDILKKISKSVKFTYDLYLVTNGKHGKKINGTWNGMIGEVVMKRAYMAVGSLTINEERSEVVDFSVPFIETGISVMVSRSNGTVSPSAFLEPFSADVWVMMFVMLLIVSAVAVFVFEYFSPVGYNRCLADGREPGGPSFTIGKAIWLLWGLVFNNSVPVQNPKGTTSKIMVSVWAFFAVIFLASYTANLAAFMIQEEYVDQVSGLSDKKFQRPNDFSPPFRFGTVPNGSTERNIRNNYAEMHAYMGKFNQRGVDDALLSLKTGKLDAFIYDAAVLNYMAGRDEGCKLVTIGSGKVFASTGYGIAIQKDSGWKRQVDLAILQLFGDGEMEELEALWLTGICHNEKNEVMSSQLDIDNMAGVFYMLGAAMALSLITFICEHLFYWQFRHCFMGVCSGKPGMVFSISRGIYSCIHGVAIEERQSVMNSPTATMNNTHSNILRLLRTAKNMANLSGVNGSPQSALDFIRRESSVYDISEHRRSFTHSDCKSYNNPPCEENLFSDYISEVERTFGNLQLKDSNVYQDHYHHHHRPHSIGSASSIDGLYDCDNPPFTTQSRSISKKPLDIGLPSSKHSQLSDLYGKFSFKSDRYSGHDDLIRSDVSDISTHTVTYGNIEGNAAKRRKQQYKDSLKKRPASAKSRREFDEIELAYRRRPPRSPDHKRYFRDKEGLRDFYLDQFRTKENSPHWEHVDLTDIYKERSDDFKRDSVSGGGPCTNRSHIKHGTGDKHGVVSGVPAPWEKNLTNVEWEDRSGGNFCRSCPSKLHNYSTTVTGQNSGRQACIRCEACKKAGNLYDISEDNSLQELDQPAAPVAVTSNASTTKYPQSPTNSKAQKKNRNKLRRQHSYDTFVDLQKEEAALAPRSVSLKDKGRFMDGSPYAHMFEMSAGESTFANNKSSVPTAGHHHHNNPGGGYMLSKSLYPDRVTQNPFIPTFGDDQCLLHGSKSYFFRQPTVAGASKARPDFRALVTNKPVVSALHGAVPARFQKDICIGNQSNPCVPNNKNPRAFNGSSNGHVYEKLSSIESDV
Chain of Muscarinic acetylcholine Receptor M2 (CHRM2) (P08172 whole entry): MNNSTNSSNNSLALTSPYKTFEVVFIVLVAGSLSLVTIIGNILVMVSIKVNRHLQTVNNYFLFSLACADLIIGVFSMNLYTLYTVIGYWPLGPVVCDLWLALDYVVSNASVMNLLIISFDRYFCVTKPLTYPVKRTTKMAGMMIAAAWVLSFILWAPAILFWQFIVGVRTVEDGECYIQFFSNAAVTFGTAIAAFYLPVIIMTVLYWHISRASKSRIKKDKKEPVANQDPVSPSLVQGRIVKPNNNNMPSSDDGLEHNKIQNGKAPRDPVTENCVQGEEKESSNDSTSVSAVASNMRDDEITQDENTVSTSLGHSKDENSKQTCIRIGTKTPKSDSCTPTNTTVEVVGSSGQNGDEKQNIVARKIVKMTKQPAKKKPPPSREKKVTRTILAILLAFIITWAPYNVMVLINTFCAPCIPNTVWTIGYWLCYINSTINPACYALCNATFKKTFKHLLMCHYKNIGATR
T2 sequence (P08908 whole entry): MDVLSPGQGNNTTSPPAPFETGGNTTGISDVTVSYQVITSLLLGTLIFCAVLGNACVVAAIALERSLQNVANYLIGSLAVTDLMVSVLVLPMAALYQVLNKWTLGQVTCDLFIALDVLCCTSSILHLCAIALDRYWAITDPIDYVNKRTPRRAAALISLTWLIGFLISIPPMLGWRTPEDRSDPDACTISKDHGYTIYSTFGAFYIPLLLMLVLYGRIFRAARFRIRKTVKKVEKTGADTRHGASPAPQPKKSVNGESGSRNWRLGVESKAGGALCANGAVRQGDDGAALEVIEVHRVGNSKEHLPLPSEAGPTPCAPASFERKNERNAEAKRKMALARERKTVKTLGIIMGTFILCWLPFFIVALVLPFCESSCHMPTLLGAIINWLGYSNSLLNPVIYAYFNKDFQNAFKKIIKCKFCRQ
Chain of Dopamine Receptor D1 (DRD1) (P21728 whole entry): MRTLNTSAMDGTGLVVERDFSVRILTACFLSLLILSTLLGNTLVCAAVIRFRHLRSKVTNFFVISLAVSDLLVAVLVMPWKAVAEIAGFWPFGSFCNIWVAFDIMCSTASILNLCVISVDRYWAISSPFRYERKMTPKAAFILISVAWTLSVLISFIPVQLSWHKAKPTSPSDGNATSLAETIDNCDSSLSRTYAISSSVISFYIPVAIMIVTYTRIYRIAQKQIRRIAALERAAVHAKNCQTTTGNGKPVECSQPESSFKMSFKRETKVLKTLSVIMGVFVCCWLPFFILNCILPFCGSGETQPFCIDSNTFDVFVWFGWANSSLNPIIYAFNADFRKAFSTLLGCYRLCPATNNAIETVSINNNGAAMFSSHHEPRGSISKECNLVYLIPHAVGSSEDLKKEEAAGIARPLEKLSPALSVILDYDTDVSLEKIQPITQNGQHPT

On to `CN(C)CCc1ccn2ccccc12` [28-12 oxalate, 2-(indolizin-1-yl)-N, N-dimethylethan-1-amine oxalate], for which the EC50 in test [1] is above 30 µM; in [2] it was above 30 µM; at 5-HT1B receptors (5-HT1B, cAMP, read-out: EC50 (μM) Agonist/Opener) it was 0.143 µM; on 5-HT1B receptors (EC50, agonism of 5-HT1B receptors, ten concentrations up to 30 μM), around 0.143 µM; in test [6], above 30 µM; in test [7], above 30 µM. Further, the EC50 in [8] was above 30 µM. For the same compound, the IC50 in [3] is above 30 µM; in test [4], above 30 µM; in [5], above 30 µM; on PDE3A it was above 30 µM; in [9] it was above 30 µM; in test [10], 1.08 µM. Besides, the IC50 in test [11] is 2.31 µM.
